According to US9079866B2, “Flap modulators” (JANSSEN PHARMACEUTICA NV, priority 2013, dated 2015):
pIC50, pKi: −log10 of the molar value.

What was measured:
human FLAP = human FLAP (Homo sapiens (Human), UniProt P20292); experiment: FLAP binding assay (HTRF format); details: wild type FLAP, HTRF format
Method in brief: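 Samples were run in duplicate on each of two plates and the plate results averaged. Read-out is the HTRF signal ratio.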

[1] = system: leukotriene pathway in human whole blood (LTB4 levels); experiment: Human whole blood assay (A23187-stimulated LTB4); assay type: cell-based; details: Homo sapiens, human whole blood diluted 1:1, A23187-stimulated; read-out: LTB4 IC50 1:1
Method in brief: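 Heparinised human whole blood, diluted 1:1 in RPMI, was pre-incubated with test compounds for 15 min at 37° Celsius, then stimulated with A23187 (7 μg/mL) for 30 min at 37° Celsius. Plasma LTB4 was measured by immunoassay kit; IC50 from 4-parameter fit; single replicate, at least one healthy donor.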

human FLAP, sequence (P20292 whole entry): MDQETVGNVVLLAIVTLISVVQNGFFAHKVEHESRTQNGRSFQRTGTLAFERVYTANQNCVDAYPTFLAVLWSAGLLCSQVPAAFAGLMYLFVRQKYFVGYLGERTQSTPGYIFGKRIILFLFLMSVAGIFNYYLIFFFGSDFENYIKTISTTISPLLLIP

pKi (human FLAP) | pIC50 [1] | SMILES
6.84 | 5.60 | Nc1cnc(-c2ccc(-c3ccccc3C(F)(F)F)cc2F)cn1 [Example 472, 5-[3-Fluoro-2′-(trifluoromethyl)biphenyl-4-yl]pyrazin-2-amine]
6.95 | 5.85 | COc1ccccc1-c1ccc(-c2cnc(N)cn2)c(F)c1 [Example 473, 5-(3-Fluoro-2′-methoxybiphenyl-4-yl)pyrazin-2-amine]
7.68 | 5.58 | CSc1ccccc1-c1ccc(-c2cnc(N)cn2)c(F)c1 [Example 474, 5-[3-Fluoro-2′-(methylsulfanyl)biphenyl-4-yl]pyrazin-2-amine]
7.49 | 6.05 | Nc1cnc(-c2ccc(-c3ccccc3O)cc2F)cn1 [Example 476, 4′-(5-Aminopyrazin-2-yl)-3′-fluorobiphenyl-2-ol]
7.80 | 6.13 | Nc1cnc(-c2ccc(-c3ccccc3S(=O)(=O)c3ccccc3)cc2F)cn1 [Example 477, 5-[3-Fluoro-2′-(phenylsulfonyl)biphenyl-4-yl]pyrazin-2-amine]
8.22 | 6.24 | Nc1cnc(-c2ccc(-c3ccccc3NS(=O)(=O)c3ccccc3)cc2F)cn1 [Example 479, N-[4′-(5-Aminopyrazin-2-yl)-3′-fluorobiphenyl-2-yl]benzenesulfonamide]
7.11 | 5.46 | Nc1cnc(-c2ccc(-c3ccccc3OCC(F)(F)F)cc2F)cn1 [Example 484, 5-[3-Fluoro-2′-(2,2,2-trifluoroethoxy)biphenyl-4-yl]pyrazin-2-amine]
7.27 | 6.35 | CC(C)Oc1ccccc1-c1ccc(-c2cnc(N)cn2)c(F)c1 [Example 487, 5-[3-Fluoro-2′-(1-methylethoxy)biphenyl-4-yl]pyrazin-2-amine]
7.01 | 5.78 | Nc1cnc(-c2ccc(-c3cccnc3OCC3CC3)cc2F)cn1 [Example 488, 5-{4-[2-(Cyclopropylmethoxy)pyridin-3-yl]-2-fluorophenyl}pyrazin-2-amine]
6.45 | 6.57 | CN(c1ccccc1-c1ccc(-c2cnc(N)cn2)c(F)c1)S(C)(=O)=O [Example 490, N-[4′-(5-Aminopyrazin-2-yl)-3′-fluorobiphenyl-2-yl]-N-methylmethanesulfonmide]
7.82 | 6.67 | CCS(=O)(=O)Nc1ccccc1-c1ccc(-c2cnc3[nH]ccc3n2)c(F)c1 [Example 491, N-[3′-Fluoro-4′-(5H-pyrrolo[2,3-b]pyrazin-2-yl)biphenyl-2-yl]ethanesulfonamide]
7.82 | 6.81 | CN(c1ccccc1-c1ccc(-c2cnc3[nH]ccc3n2)c(F)c1)S(C)(=O)=O [Example 492, N-[3′-Fluoro-4′-(5H-pyrrolo[2,3-b]pyrazin-2-yl)biphenyl-2-yl]-N-methylmethanesulfonamide]
8.15 | 6.52 | CCS(=O)(=O)N(C)c1ccccc1-c1ccc(-c2cnc3[nH]ccc3n2)c(F)c1 [Example 493, N-[3′-Fluoro-4′-(5H-pyrrolo[2,3-b]pyrazin-2-yl)biphenyl-2-yl]-N-methylethanesulfonamide]
7.49 | 7.00 | CCS(=O)(=O)N(C)c1ccccc1-c1ccc(-c2cnc(N)cn2)c(F)c1 [Example 494, N-[4′-(5-Aminopyrazin-2-yl)-3′-fluorobiphenyl-2-yl]-N-methylethanesulfonamide]
8.40 | 6.29 | CC(C)CS(=O)(=O)Nc1ccccc1-c1ccc(-c2cnc3[nH]ccc3n2)c(F)c1 [Example 495, N-[3′-Fluoro-4′-(5H-pyrrolo[2,3-b]pyrazin-2-yl)biphenyl-2-yl]-2-methylpropane-1-sulfonamide]
7.72 | 6.78 | CCN(c1ccccc1-c1ccc(-c2cnc(N)cn2)c(F)c1)S(C)(=O)=O [Example 496, N-[4′-(5-Aminopyrazin-2-yl)-3′-fluorobiphenyl-2-yl]-N-ethylmethanesulfonamide]
7.60 | 6.29 | CC(C)CS(=O)(=O)N(C)c1ccccc1-c1ccc(-c2cnc(N)cn2)c(F)c1 [Example 497, N-[4′-(5-Aminopyrazin-2-yl)-3′-fluorobiphenyl-2-yl]-N,2-dimethylpropane-1-sulfonamide]
7.80 | 6.95 | O=C(c1ccccc1-c1ccc(-c2cnc3[nH]ccc3c2)c(F)c1)N1CCOCC1 [Example 498, 5-[3-Fluoro-2′-(morpholin-4-ylcarbonyl)biphenyl-4-yl]-1H-pyrrolo[2,3-b]pyridine]
7.32 | 6.86 | O=C(c1ccccc1-c1ccc(-c2cnc3[nH]ccc3n2)c(F)c1)N1CCOCC1 [Example 500, 2-[3-Fluoro-2′-(morpholin-4-ylcarbonyl)biphenyl-4-yl]-5H-pyrrolo[2,3-b]pyrazine]
7.08 | 6.44 | CC(C)(C)NC(=O)c1cc(F)ccc1-c1ccc(-c2cnc(N)cn2)c(F)c1 [Example 502, 4′-(5-Aminopyrazin-2-yl)-N-tert-butyl-3′,4-difluorobiphenyl-2-carboxamide]
7.85 | 7.04 | CCN(CC)C(=O)c1ccccc1-c1ccc(-c2cnc(N)cn2)c(F)c1 [Example 503, 4′-(5-Aminopyrazin-2-yl)-N,N-diethyl-3′-fluorobiphenyl-2-carboxamide]
7.74 | 7.15 | C[C@H](NC(=O)c1ccccc1-c1ccc(-c2cnc(N)cn2)c(F)c1)C(F)(F)F [Example 505, 4′-(5-Aminopyrazin-2-yl)-3′-fluoro-N-[(1S)-2,2,2-trifluoro-1-methylethyl]biphenyl-2-carboxamide]
6.67 | 6.49 | C[C@@H](NC(=O)c1ccccc1-c1ccc(-c2cnc(N)cn2)c(F)c1)C(F)(F)F [Example 511, 4′-(5-Aminopyrazin-2-yl)-3′-fluoro-N-[(1R)-2,2,2-trifluoro-1-methylethyl]biphenyl-2-carboxamide]
6.35 | 6.33 | C[C@H](CO)NC(=O)c1ccccc1-c1ccc(-c2cnc(N)cn2)c(F)c1 [Example 512, 4′-(5-Aminopyrazin-2-yl)-3′-fluoro-N-[(1R)-2-hydroxy-1-methylethyl]biphenyl-2-carboxamide]
6.88 | 6.83 | Nc1cnc(-c2ccc(-c3ccccc3C(=O)N3CCC(O)CC3)cc2F)cn1 [Example 514, 1-{[4′-(5-Aminopyrazin-2-yl)-3′-fluorobiphenyl-2-yl]carbonyl}piperidin-4-ol]
8.30 | 7.89 | Nc1cnc(-c2ccc(-c3ccc(C(F)(F)F)cc3C(=O)N3CCOCC3)cc2F)cn1 [Example 521, 5-[3-Fluoro-2′-(morpholin-4-ylcarbonyl)-4′-(trifluoromethyl)biphenyl-4-yl]pyrazin-2-amine]
6.46 | 6.41 | Nc1ncc(-c2ccc(-c3ccc(C(F)(F)F)cc3C(=O)N3CCOCC3)cc2F)cn1 [Example 522, 5-[3-Fluoro-2′-(morpholin-4-ylcarbonyl)-4′-(trifluoromethyl)biphenyl-4-yl]pyrimidin-2-amine]

SMILES | pKi (human FLAP) | pIC50 [1]
Nc1cnc(-c2ccc(-c3ccccc3C(=O)N3CCS(=O)(=O)CC3)cc2F)cn1 [Example 509, 5-{2′-[(1,1-Dioxidothiomorpholin-4-yl)carbonyl]-3-fluorobiphenyl-4-yl}pyrazin-2-amine] | 6.83 | 7.03
